Kd and IC50 data for 24 compounds are collected here from patent US20240025906A1 (NEURON23, INC., priority 2022, published 2024).

The target of one assay is T1, TYK2 JH2 (Homo sapiens, UniProt P29597).
T1 construct: purchased DiscoverX (KINOMEscan KdELECT service); host or cells: E. coli BL21-derived (T7 phage display) or HEK-293
Kind of assay: TYK2 JH2 binding assay (KINOMEscan KdELECT competitive binding). To be noted: TYK2 JH2 domain, DiscoverX KINOMEscan KdELECT (Assay A); read-out: Biochemical TYK2_DiscoverX_JH2_BND_Kd. Summed up: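 Test compounds were titrated in 11 three-fold steps against JH2 fragment captured on ligand-loaded magnetic beads, with 1 h incubation at room temperature and DMSO at 0.9%. Eluted kinase was quantified by qPCR, and Kd was fitted from the dose series.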

Assay [1] relates to JAK1/TYK2 pSTAT5 (Tyr694/699) in THP-1 cell line. Put plainly: IFNa-stimulated JAK1/TYK2 pSTAT5 (Tyr694/699) inhibition cellular assay, AlphaLISA. The assay is classed as cell-based. To be noted: Homo sapiens; THP-1 cells, IFNa-stimulated, AlphaLISA (Assay B); read-out: Cellular_THP1_IFNa-pSTATS_TYK2. Summed up: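 An eight-point 6-fold titration of compound (0.04–10000 nM final) is given to THP-1 cells for 1 h before 30 min of IFNa exposure. Phospho-STAT5 is read by AlphaLISA at 615 nm. IC50 values are derived by logistic regression with bottom set to 0 and Hill slope set to −1.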
(Alpha assays give light when donor and acceptor beads are brought close together.)

T1 sequence (P29597 589-875 limits assumed): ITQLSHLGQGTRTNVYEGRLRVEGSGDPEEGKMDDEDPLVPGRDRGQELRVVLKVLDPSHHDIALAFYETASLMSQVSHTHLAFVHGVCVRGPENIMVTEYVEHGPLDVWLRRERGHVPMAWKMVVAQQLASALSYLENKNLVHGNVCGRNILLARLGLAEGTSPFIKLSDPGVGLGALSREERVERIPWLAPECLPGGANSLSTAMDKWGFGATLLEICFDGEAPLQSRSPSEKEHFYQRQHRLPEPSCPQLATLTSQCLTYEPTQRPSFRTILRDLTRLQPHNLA

As to `CNc1ncc(-c2nc3ccc(N4CCOCC4)cn3n2)c2cc(NC(=O)C3CC3)ncc12` [Example 471, N-(8-(methylamino)-5-(6-morpholino-[1,2,4]triazolo[1,5-a]pyridin-2-yl)-2,7-naphthyridin-3-yl)cyclopropanecarboxamide], the Kd at TYK2 JH2 is not above 100 nM. Besides, the IC50 in assay [1] is not above 500 nM.

As for `CNc1ncc(-c2nc3ccc(N4CC(F)(F)C4)cn3n2)c2cc(NC(=O)C3CC3)ncc12` [Example 472, N-(5-(6-(3,3-difluoroazetidin-1-yl)-[1,2,4]triazolo[1,5-a]pyridin-2-yl)-8-(methylamino)-2,7-naphthyridin-3-yl)cyclopropanecarboxamide], the Kd on TYK2 JH2 is not above 100 nM. For the same compound, the IC50 in assay [1] is not above 500 nM.

As to `CNc1ncc(-c2nc3ccc(N4CC(F)C4)cn3n2)c2cc(NC(=O)C3CC3)ncc12` [Example 473, N-(5-(6-(3-fluoroazetidin-1-yl)-[1,2,4]triazolo[1,5-a]pyridin-2-yl)-8-(methylamino)-2,7-naphthyridin-3-yl)cyclopropanecarboxamide], the Kd on TYK2 JH2 was not above 100 nM. The IC50 in assay [1] was not above 500 nM.

In the case of `CNc1ncc(-c2nc3ccc(N4CCC4)cn3n2)c2cc(NC(=O)C3CC3)ncc12` [Example 474, N-(5-(6-(azetidin-1-yl)-[1,2,4]triazolo[1,5-a]pyridin-2-yl)-8-(methylamino)-2,7-naphthyridin-3-yl)cyclopropanecarboxamide], the Kd at TYK2 JH2 is not above 100 nM. In assay [1], the IC50 is not above 500 nM.

Take `CNc1ncc(-c2nc3ccc(N4CC(O)C4)cn3n2)c2cc(NC(=O)C3CC3)ncc12` [Example 475, N-(5-(6-(3-hydroxyazetidin-1-yl)-[1,2,4]triazolo[1,5-a]pyridin-2-yl)-8-(methylamino)-2,7-naphthyridin-3-yl)cyclopropanecarboxamide]: the Kd at TYK2 JH2 is not above 100 nM. Also, the IC50 in assay [1] is not above 500 nM.

With `CNc1ncc(-c2nc3ccc(N4CC(OC)C4)cn3n2)c2cc(NC(=O)C3CC3)ncc12` [Example 476, N-(5-(6-(3-methoxyazetidin-1-yl)-[1,2,4]triazolo[1,5-a]pyridin-2-yl)-8-(methylamino)-2,7-naphthyridin-3-yl)cyclopropanecarboxamide], the Kd on TYK2 JH2 is not above 100 nM. In addition, the IC50 in assay [1] is not above 500 nM.

On to `CNc1ncc(-c2nc3ccc(N4CCO[C@H](C)C4)cn3n2)c2cc(NC(=O)C3CC3)ncc12` [Example 477, (R)-N-(8-(methylamino)-5-(6-(2-methylmorpholino)-[1,2,4]triazolo[1,5-a]pyridin-2-yl)-2,7-naphthyridin-3-yl)cyclopropanecarboxamide], for which, on TYK2 JH2, the Kd was not above 100 nM. Further, the IC50 in assay [1] was not above 500 nM.

With `CNc1ncc(-c2nc3ccc(N4CCO[C@@H](C)C4)cn3n2)c2cc(NC(=O)C3CC3)ncc12` [Example 478, (S)-N-(8-(methylamino)-5-(6-(2-methylmorpholino)-[1,2,4]triazolo[1,5-a]pyridin-2-yl)-2,7-naphthyridin-3-yl)cyclopropanecarboxamide], the Kd on TYK2 JH2 is not above 100 nM. For the same compound, the IC50 in assay [1] is not above 500 nM.

With `CNc1ncc(-c2nc3ccc(N4C[C@@H](C)O[C@@H](C)C4)cn3n2)c2cc(NC(=O)C3CC3)ncc12` [Example 479, N-(5-(6-((2R,6S)-2,6-dimethylmorpholino)-[1,2,4]triazolo[1,5-a]pyridin-2-yl)-8-(methylamino)-2,7-naphthyridin-3-yl)cyclopropanecarboxamide], the Kd on TYK2 JH2 was not above 100 nM. Moreover, in assay [1], the IC50 was not above 500 nM.

`CNc1ncc(-c2nc3ccc(N4CCO[C@H](C(F)(F)F)C4)cn3n2)c2cc(NC(=O)C3CC3)ncc12` [Example 481, (S)-N-(8-(methylamino)-5-(6-(2-(trifluoromethyl)morpholino)-[1,2,4]triazolo[1,5-a]pyridin-2-yl)-2,7-naphthyridin-3-yl)cyclopropanecarboxamide]: the Kd at TYK2 JH2 was not above 100 nM. Further, the IC50 in assay [1] was not above 500 nM.

In the case of `CNc1ncc(-c2nc3ccc(N4CCO[C@@H](C(F)(F)F)C4)cn3n2)c2cc(NC(=O)C3CC3)ncc12` [Example 482, (R)-N-(8-(methylamino)-5-(6-(2-(trifluoromethyl)morpholino)-[1,2,4]triazolo[1,5-a]pyridin-2-yl)-2,7-naphthyridin-3-yl)cyclopropanecarboxamide], on TYK2 JH2, the Kd is not above 100 nM. The IC50 in assay [1] was not above 500 nM.

As for `CNc1ncc(-c2nc3ccc(N4CCC(F)(F)CC4)cn3n2)c2cc(NC(=O)C3CC3)ncc12` [Example 483, N-(5-(6-(4,4-difluoropiperidin-1-yl)-[1,2,4]triazolo[1,5-a]pyridin-2-yl)-8-(methylamino)-2,7-naphthyridin-3-yl)cyclopropanecarboxamide], the Kd at TYK2 JH2 is not above 100 nM. Besides, the IC50 in assay [1] was not above 500 nM.

For `CNc1ncc(-c2nc3ccc(N4CCC(F)CC4)cn3n2)c2cc(NC(=O)C3CC3)ncc12` [Example 484, N-(5-(6-(4-fluoropiperidin-1-yl)-[1,2,4]triazolo[1,5-a]pyridin-2-yl)-8-(methylamino)-2,7-naphthyridin-3-yl)cyclopropanecarboxamide], the Kd on TYK2 JH2 was not above 100 nM. The IC50 in assay [1] is not above 500 nM.

As to `CNc1ncc(-c2nc3ccc(N4CCCC(F)(F)C4)cn3n2)c2cc(NC(=O)C3CC3)ncc12` [Example 485, N-(5-(6-(3,3-difluoropiperidin-1-yl)-[1,2,4]triazolo[1,5-a]pyridin-2-yl)-8-(methylamino)-2,7-naphthyridin-3-yl)cyclopropanecarboxamide], on TYK2 JH2, the Kd was not above 100 nM. Further, the IC50 in assay [1] was not above 500 nM.

For the compound `CNc1ncc(-c2nc3ccc(N4CCC(F)C4)cn3n2)c2cc(NC(=O)C3CC3)ncc12` (stereo not drawn) [Example 486, N-(5-(6-(3-fluoropyrrolidin-1-yl)-[1,2,4]triazolo[1,5-a]pyridin-2-yl)-8-(methylamino)-2,7-naphthyridin-3-yl)cyclopropanecarboxamide], the Kd at TYK2 JH2 is not above 100 nM. In addition, the IC50 in assay [1] was not above 500 nM.

Regarding `CNc1ncc(-c2nc3ccc(N4C5CCC4COC5)cn3n2)c2cc(NC(=O)C3CC3)ncc12` [Example 487, N-(5-(6-(3-oxa-8-azabicyclo[3.2.1]octan-8-yl)-[1,2,4]triazolo[1,5-a]pyridin-2-yl)-8-(methylamino)-2,7-naphthyridin-3-yl)cyclopropanecarboxamide], the Kd on TYK2 JH2 is not above 100 nM. The IC50 in assay [1] was not above 500 nM.

Turning to `CNc1ncc(-c2nc3ccc(N4C[C@@H]5C[C@H]4CO5)cn3n2)c2cc(NC(=O)C3CC3)ncc12` [Example 488, N-(5-(6-((1S,4S)-2-oxa-5-azabicyclo[2.2.1]heptan-5-yl)-[1,2,4]triazolo[1,5-a]pyridin-2-yl)-8-(methylamino)-2,7-naphthyridin-3-yl)cyclopropanecarboxamide], the Kd on TYK2 JH2 was not above 100 nM. Besides, in assay [1], the IC50 is not above 500 nM.

As for `CNc1ncc(-c2nc3ccc(N4C[C@H]5C[C@@H]4CO5)cn3n2)c2cc(NC(=O)C3CC3)ncc12` [Example 489, N-(5-(6-((1R,4R)-2-oxa-5-azabicyclo[2.2.1]heptan-5-yl)-[1,2,4]triazolo[1,5-a]pyridin-2-yl)-8-(methylamino)-2,7-naphthyridin-3-yl)cyclopropanecarboxamide], the Kd on TYK2 JH2 is not above 100 nM. In addition, the IC50 in assay [1] is not above 500 nM.

Regarding `CNc1ncc(-c2nc3cccc(Cl)n3n2)c2cc(NC(=O)C3CC3)ncc12` [Example 490, N-(5-(5-chloro-[1,2,4]triazolo[1,5-a]pyridin-2-yl)-8-(methylamino)-2,7-naphthyridin-3-yl)cyclopropanecarboxamide], the Kd on TYK2 JH2 is not above 100 nM. In addition, the IC50 in assay [1] is not above 500 nM.

With `CNc1ncc(-c2nc3c(Cl)cccn3n2)c2cc(NC(=O)C3CC3)ncc12` [Example 491, N-(5-(8-chloro-[1,2,4]triazolo[1,5-a]pyridin-2-yl)-8-(methylamino)-2,7-naphthyridin-3-yl)cyclopropanecarboxamide], the Kd on TYK2 JH2 was not above 100 nM. In addition, in assay [1], the IC50 is not above 500 nM.

As to `CNc1ncc(-c2nc3cc(OC)ccn3n2)c2cc(NC(=O)C3CC3)ncc12` [Example 492, N-(5-(7-methoxy-[1,2,4]triazolo[1,5-a]pyridin-2-yl)-8-(methylamino)-2,7-naphthyridin-3-yl)cyclopropanecarboxamide], the Kd at TYK2 JH2 was not above 100 nM. Further, in assay [1], the IC50 is not above 500 nM.

On to `CNc1ncc(-c2nc3ccc(C(C)(F)F)cn3n2)c2cc(NC(=O)C3CC3)ncc12` [Example 493, N-(5-(6-(1,1-difluoroethyl)-[1,2,4]triazolo[1,5-a]pyridin-2-yl)-8-(methylamino)-2,7-naphthyridin-3-yl)cyclopropanecarboxamide], for which the Kd on TYK2 JH2 was not above 100 nM. In addition, the IC50 in assay [1] is not above 500 nM.

In the case of `CNc1ncc(-c2nc3ccc(OC(F)(F)F)cn3n2)c2cc(NC(=O)C3CC3)ncc12` [Example 493A, N-(8-(methylamino)-5-(6-(trifluoromethoxy)-[1,2,4]triazolo[1,5-a]pyridin-2-yl)-2,7-naphthyridin-3-yl)cyclopropanecarboxamide], the Kd on TYK2 JH2 is not above 100 nM. The IC50 in assay [1] is not above 500 nM.

As to `CNc1ncc(-c2nc3ccc(OC4CC4)cn3n2)c2cc(NC(=O)C3CC3)ncc12` [Example 494, N-(5-(6-cyclopropoxy-[1,2,4]triazolo[1,5-a]pyridin-2-yl)-8-(methylamino)-2,7-naphthyridin-3-yl)cyclopropanecarboxamide], at TYK2 JH2, the Kd is not above 100 nM. Also, the IC50 in assay [1] is not above 500 nM.
